Test results taken from patent publication US8653095B2, “Small molecules with antimalarial activity” (Radix Pharmaceuticals, Inc., priority 2011, dated 2014).

How the values were obtained:
[1] = system: P. falciparum V1S; test: microbe, parasite or virus in culture; format: cell-based; conditions: Plasmodium falciparum
Description: In Vitro Blood Stage Antimalarial Efficacy Evaluation. New compounds were tested against a panel of strains of P. falciparum.
Test compounds were initially dissolved in DMSO and diluted 400 fold in RPMI 1640 culture medium supplemented with 25 mM Hepes, 32 mM NaHCO3 and 10% Albumax I (Gibco, NY). These solutions were subsequently serially diluted two-fold with a Beckman Biomek® 1000 Robot (Fullerton, Calif.) over 11 different concentrations. The parasites were exposed to serial dilutions of each compound for 48 hrs and incubated at 37° C. with 5% O2, 5% CO2 and 90% N2 prior to the addition of [^3H]hypoxanthine. After a further incubation of 18 hrs, parasite DNA was harvested from each microtiter well using Packard Filtermate™ 196 Harvester (Meriden, Conn.) onto glass filters. Uptake of [^3H]hypoxanthine was measured with a Packard TopCount Liquid Scintillation Counter (Packard Instrument Co.).

[2] = system: Liver stage of P. yoelii yoelii; test: In vitro liver-stage antimalarial efficacy evaluation; format: cell-based; conditions: Plasmodium yoelii
Description: In Vitro Liver-Stage Antimalarial Efficacy Evaluation. Any new desirable antimalarial drug should be broad spectrum: it should be active against both the blood stage and the liver stage of the parasite. New compounds were assessed on the Plasmodium yoelii liver stage in vitro. The liver stage of P. yoelii is a parasite of rodent extensively used as an experimental model for studying the initial phase of the malaria infection.

[3] = system: Plasmodium berghei; test: Oral prophylactic test in mice; format: in vivo; conditions: for Mice infected and treated/Mice surviving day 60: oral; for Protection from malaria (oral prophylactic activity): mice, single dose of 0.5 mg/kg within 2 days pre-infection through 2 days post-infection
Description: Derivative compounds were also tested for oral prophylactic activity.
CD-I male or female mice, 5 weeks of age, were infected with 5×10^4 parasitized erythrocytes of Plasmodium berghei strain. Blood films were taken on day +6 and weekly thereafter until day+30. […]

[4] = system: chloroquine-resistant FVO strain of P. falciparum; test: Efficacy against blood stages of P. falciparum in Aotus monkeys; format: in vivo; conditions: oral for 3 days
Description: In Vivo Efficacy Studies in Aotus Monkey Model. The monkeys selected for the study had active infections of the chloroquine-resistant FVO strain of P. falciparum. Once parasitemias reached 5,000/μl (or as deemed appropriate by the attending veterinarian), they were treated orally with Formula B or Formula C at 2, 4, 8, or 16 mg/kg/day for 3 days. For compound Formula B, the dosage needed to cure 50% of animals was 4 mg/kg/day and the dosage needed to cure 100% of animals was 16 mg/kg/day. For compound Formula C, the 50% curative dose was 2 mg/kg/day and the 100% curative dose was 8 mg/kg/day (Table 7).
Malaria-naive Panamanian owl monkeys (Aotus lemurinus lemurinus) were used as hosts for chioroquine-resistant P. falciparum. The chloroquine-resistant Vietnam Smith strain was used in the initial experiments. In subsequent studies, a recrudescent isolate from a Vietnam Smith strain infected Aotus monkey treated with chloroquine was used.
The inoculum size produced a parasitemia of at least 5×10^3/mm^3 by the fifth day postinoculation, at which time treatment was begun. Stock solutions of water-soluble drug were prepared at appropriate concentrations and maintained at 4° C. during the course of treatment. A suspension of water-insoluble drugs was prepared in 0.3% methylcellulose just prior to use. All drugs were administered by gastric intubation in a volume of 7.0 ml, followed by a 7.0-mi rinse with either water or 0.3% methylcellulose. Test drug was given orally for either three or seven consecutive days. In several experiments, the putative resistance modulator was given three times per day (8:00 AM, noon, and 4:00 PM) for three or seven days.
Giemsa-stained blood smears were prepared from all animals and examined daily beginning the day after inoculation until parasitemia was cleared and for at least seven days thereafter. At that time, blood films were examined twice a week up to 100 days after treatment. Thick blood films were considered negative if no parasites were seen after examination for at least five min. Ten or less parasites on a thick blood film were recorded as <10. Parasitemia was enumerated and expressed as number of parasites/mm^3. Treated animals were observed twice a day for signs of drug toxicity, as evidenced by abnormal behavior, anorexia, diarrhea, or vomiting. Necropsies were per formed on all animals that died. In conducting the research described in this report, the investigators adhered to the Guide for the Care and Use of Laboratory Animals, as promulgated by the National Research Council.
The outcome of each infection was compared with untreated controls and monkeys treated with chloroquine. […]

[5] = day of treatment 1, dose 0.5 mg/kg
[6] = day of treatment 1, dose 2 mg/kg
[7] = day of treatment 1, dose 8 mg/kg
[8] = day of treatment 1, dose 32 mg/kg
[9] = day of treatment 2, dose 0.5 mg/kg
[10] = day of treatment 2, dose 2 mg/kg
[11] = day of treatment 2, dose 8 mg/kg
[12] = day of treatment 2, dose 32 mg/kg
[13] = day of treatment −1, dose 0.5 mg/kg
[14] = day of treatment −1, dose 2 mg/kg
[15] = day of treatment −1, dose 8 mg/kg
[16] = day of treatment −1, dose 32 mg/kg
[17] = day of treatment −2, dose 0.5 mg/kg
[18] = day of treatment −2, dose 2 mg/kg
[19] = day of treatment −2, dose 8 mg/kg
[20] = day of treatment −2, dose 32 mg/kg

SMILES	IC50 [1] [nM]	IC50 [2] [nM]	Mice infected and treated/Mice surviving day 60 [3, 5]	Mice infected and treated/Mice surviving day 60 [3, 6]	Mice infected and treated/Mice surviving day 60 [3, 7]	Mice infected and treated/Mice surviving day 60 [3, 8]	Mice infected and treated/Mice surviving day 60 [3, 9]	Mice infected and treated/Mice surviving day 60 [3, 10]	Mice infected and treated/Mice surviving day 60 [3, 11]	Mice infected and treated/Mice surviving day 60 [3, 12]	Mice infected and treated/Mice surviving day 60 [3, 13]	Mice infected and treated/Mice surviving day 60 [3, 14]	Mice infected and treated/Mice surviving day 60 [3, 15]	Mice infected and treated/Mice surviving day 60 [3, 16]	Mice infected and treated/Mice surviving day 60 [3, 17]	Mice infected and treated/Mice surviving day 60 [3, 18]	Mice infected and treated/Mice surviving day 60 [3, 19]	Mice infected and treated/Mice surviving day 60 [3, 20]	Protection from malaria (oral prophylactic activity) [3]	Dosage needed to cure 50% of animals (50% curative dose) [4] [mg/kg/day]	also measured
CC[C@@H](N)[C@H](O)[C@H](O)[C@H](COC)[C@@H]1CC[C@@]23CC24c2nc5ccc(OC)cc5cc2C(=O)N[C@H]4CN13 (stereo partly drawn) [Formula B]	0.26 ± 0.05	5.8	5/5	5/5	5/5	5/5	5/5	5/5	5/5	5/5	5/5	5/5	5/5	5/5	5/5	5/5	5/5	5/5	completely protected	4	Dosage needed to cure 100% of animals (100% curative dose) [4]: 16 mg/kg/day
COC[C@@H]([C@@H](O)[C@@H](O)[C@H](N)Cc1ccccc1)[C@@H]1CC[C@@]23CC24c2nc5ccc(OC)cc5cc2C(=O)N[C@H]4CN13 (stereo partly drawn) [Formula C]	0.12 ± 0.03	7.1	5/5	5/5	5/5	5/5	5/5	5/5	5/5	5/5	5/5	5/5	5/5	5/5	5/5	5/5	5/5	5/5	completely protected	2	Dosage needed to cure 100% of animals (100% curative dose) [4]: 8 mg/kg/day
